Patent publication US8703815B2, “Small molecules that covalently modify transthyretin” (The Scripps Research Institute, priority 2009, dated 2014)
Like-named read-outs stand apart in the source and are kept apart here.

Legend:
WT-TTR [1] = biological target: T1, WT-TTR (Homo sapiens, UniProt P02766); experiment: Acid-mediated WT-TTR fibril formation assay (turbidity at 400 nm); format: biochemical; conditions: for IC50: % fibril formation after 72 hours, read-out: IC50 (apparent), inhibition of WT-TTR amyloidogenesis
T1 construct: composed of 127-residue β-sheet-rich subunits; made in house; host or cells: E. coli
Protocol: The mixtures were vortexed and incubated (maintained) for 18 hours at 25° C.

V30M-TTR = biological target: T2, V30M-TTR (Homo sapiens, UniProt P02766, V50M); experiment: Acid-mediated V30M-TTR fibril formation assay (turbidity at 400 nm); format: biochemical; conditions: pH 4.4, 72 hours, 37° C.
T2 construct: composed of 127-residue β-sheet-rich subunits; made in house
Protocol: Compounds (5 μL of 1.44 mM solution in DMSO) were added to 495 μL of TTR (7.2 μM, in 10 mM sodium phosphate, 100 mM KCl, 1 mM EDTA, pH 7.0). The mixtures were vortexed and incubated (maintained) for 18 hours at 25° C. […] The solutions were vortexed to evenly distribute any precipitate, and turbidity was measured at 400 nm using a Hewlett Packard model 8453 UV-VIS Spectrophotometer.

[2] = Quantum yield measurement in buffer; format: physicochemical
Protocol: (§1) The covalent TTR modifier A1 or A2 or the non-covalent TTR ligand B2 (15 μL of a 1.44 mM solution in DMSO, final concentration: 7.2 μM) was added to 3 mL of a solution of WT-TTR homotetramer (0.2 mg/mL, 3.6 μM) in 10 mM phosphate, 100 mM KCl and 1 mM EDTA (pH 7.0 phosphate buffer). The samples were vortexed, and incubated for 18 hours at 25° C. Quantum yields were measured by following the instructions at the web site: jobinyvon.com/usadivisions/Fluorescence/applications/quantumyieldstrad.pdf. Quinine bisulfate in 0.5 M H2SO4 was used as a reference for comparison (Φf=0.546). [Crosby et al., J. Phys. Chem. 1971, 75, 991-1024.]

WT-TTR [3] = biological target: T1, WT-TTR; experiment: Quantum yield measurement with WT-TTR; format: physicochemical; conditions: compound 7.2 μM
Protocol: as §1

[4] = test system: WT-TTR in transfected HeLa cells; experiment: Confocal fluorescence imaging of WT-TTR in transfected HeLa cells; format: cell-based, human; conditions: A2 10 μM, 1 hour
Protocol: Secreted WT-TTR was produced in HeLa cells by transient transfection and the cells were treated with A2 for 1 hour prior to imaging using confocal fluorescence microscopy. The expression of WT-TTR in the HeLa cells after transient transfection was confirmed using western blot analysis, as was the absence of TTR in the empty vector control. […] TTR conjugate fluorescence co-localized with calnexin indirect immunofluorescence, a marker for the endoplasmic reticulum (ER), confirming that WT-TTR within the secretory pathway is being observed. TTR conjugate fluorescence is also expected in the Golgi and in secretory vesicles, explaining why TTR conjugate fluorescence is observed in organelles in addition to the ER.
HeLa cells were plated on cover slips in DMEM containing 10% FBS at 37° C. under 5% CO2 the day before they were transfected with pcDNA3.1(+)-empty vector or pcDNA3.1(+)-WT-TTR using […] (Roche) according to the manufacturer's instructions. After 48 hours, the cells were washed with PBS twice before adding fresh DMEM (without FBS) with A2 (final concentration: 10 μM), and the cells were incubated at 37° C. for 1 hour. After two washes with PBS, the cells were fixed at 25° C. for 15 minutes with 3.7% (w/v) paraformaldehyde in PBS. […]

[5] = test system: Huh-7 human liver (hepatoma) cells; experiment: Labeling of endogenous TTR in Huh-7 cells; format: cell-based; conditions: A2 10 μM, 30 minutes
From the text: (§2) The confocal fluorescence observations are consistent with substantial evidence that the liver secretes the vast majority, if not all, of the TTR into the human bloodstream [Felding et al., Biochimica et Biophysica Acta 1982, 716, 446-9]. That TTR could be visualized in the secretory pathway addresses the sensitivity of A2-derived TTR fluorescent conjugate-based detection [Sekijima et al., Cell 2005, 121, 73-85].
(§3) Huh-7 cells or Gaucher's patient-derived fibroblasts (Coriell Cell Repositories, GM08760) were maintained in DMEM containing 10% FBS at 37° C. under 5% CO2. The cells were plated the day before compound treatment and imaging. Cells were washed twice with PBS and then treated with A2 (final concentration: 10 μM) for 30 minutes at 37° C. in a CO2 incubator. After two washes, cells were fixed at 25° C. for 15 minutes with 3.7% paraformaldehyde (w/v) in PBS and microscopic images were acquired as described above.

human fibroblasts = experiment: A2 treatment of human fibroblasts (no TTR); format: cell-based; conditions: A2 10 μM, 30 minutes
From the text: as §2, §3

SMILES	IC50 (WT-TTR [1]; WT-TTR 3.6 μM) [µM]	IC50 (WT-TTR [1]; WT-TTR […]) [µM]	% Fibril Formation 7.2 μM (WT-TTR) (WT-TTR [1]; WT-TTR […], compound 7.2 μM, pH 4.4, 72 hours, 37° C.) [%]	% Fibril Formation […] (WT-TTR) (WT-TTR [1]; WT-TTR […], compound […], pH 4.4, 72 hours, 37° C.) [%]	% Fibril Formation 7.2 μM (V30M-TTR) (V30M-TTR; compound 7.2 μM) [%]	% Fibril Formation […] (V30M-TTR) (V30M-TTR; compound […]) [%]	fluorescence quantum yield in buffer [2]	fluorescence quantum yield in complex or conjugate with TTR (WT-TTR [3])	conjugate fluorescence in HeLa cells expressing WT-TTR [4]	fluorescence in Huh-7 cells [5]	fluorescence in human fibroblasts (human fibroblasts)
Cc1cc(/C=C/c2cccc(C(=O)Sc3ccccc3)c2)cc(C)c1O [Compound 2, (E)-S-phenyl 3-(4-hydroxy-3,5-dimethylstyryl)benzothioate]	1.96 to 2.26	2	2	16	3	34	–	–	–	–	–
Cc1cc(/C=C/c2cc(C(=O)Sc3ccc(F)cc3)cc(N(C)C)c2)cc(C)c1O [Compound A2, (E)-S-4-fluorophenyl 3-(dimethylamino)-5-(4-hydroxy-3,5-dimethylstyryl)-benzothioate]	–	–	–	–	–	–	0.00	0.27	strong conjugate fluorescence	strong fluorescence	no significant fluorescence
